From US10308647B2, “Fused imidazole derivatives as IDO/TDO inhibitors” (SciFluor Life Sciences, Inc., priority 2015, dated 2019)

Tests used:
[1] = biological target: recombinant IDO1 (Homo sapiens, UniProt P14902); assay: IDO1 enzymatic assay (UV absorption, N-formylkynurenine formation); type: biochemical; conditions: for IC50: 40 nM IDO1, 900 μM tryptophan, 180 min, room temperature, read-out: Enzyme IDO IC50; for Enzyme IDO IC50 ratio compared to Cmpd 2: IC50 of compound divided by IC50 of reference compound 2
recombinant IDO1, sequence (P14902 whole entry, species assumed): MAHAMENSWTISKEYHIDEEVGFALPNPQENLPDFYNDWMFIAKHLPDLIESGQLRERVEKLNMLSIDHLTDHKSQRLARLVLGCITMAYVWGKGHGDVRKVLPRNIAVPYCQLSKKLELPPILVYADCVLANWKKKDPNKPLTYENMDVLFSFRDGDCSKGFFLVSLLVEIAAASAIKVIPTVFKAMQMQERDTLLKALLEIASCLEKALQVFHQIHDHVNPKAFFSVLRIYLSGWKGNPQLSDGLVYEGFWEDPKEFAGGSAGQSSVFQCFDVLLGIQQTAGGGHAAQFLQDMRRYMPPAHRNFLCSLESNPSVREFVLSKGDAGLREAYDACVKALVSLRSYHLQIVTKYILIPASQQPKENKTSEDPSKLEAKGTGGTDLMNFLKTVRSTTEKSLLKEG
Method: (§1) The assay was performed by UV absorption using either recombinant IDO1 or TDO2 and L-Tryptophan as substrate. The UV absorption signal at 321 nm was correlated with the amount of N-formylkynurenine reaction product of IDO1 and TDO2.
(§2) The compounds of the present application were diluted in 10% DMSO and 5 μl of the dilution was added to a 100 μl reaction so that the final concentration of DMSO is 0.5% in all reactions.
IDO1 Assay: All of the reactions were conducted at room temperature. The 100 μl reaction mixture in IDO Assay Buffer contains 40 nM IDO1, the indicated amount of the compound, 900 μM tryptophan, and the coupled reaction components. The reaction mixture was incubated for 180 min prior to reading of the UV absorption signal. For the negative control (blank), 5 μl of the assay buffer was added instead of the IDO1.
(§3) Absorption signals were measured using a Tecan Infinite M1000 plate reader.
(§4) Data analysis: Binding experiments were performed in duplicate at each concentration. The data were analyzed using the computer software, Graphpad Prism. In the absence of the compound, the absorption signal (At) in each data set was defined as 100% activity. In the absence of the IDO1, the absorption signal (Ab) in each data set was defined as 0% activity. The percent activity in the presence of each compound was calculated according to the following equation: % activity=[(A−Ab)/(At−Ab)]×100, where A=the absorption signal in the presence of the compound. The percent inhibition was calculated according to the following equation: % inhibition=100−% activity. The values of % activity versus a series of compound concentrations were then plotted using non-linear regression analysis of Sigmoidal dose-response curve generated with the equation Y=B+(T−B)/1+10^((LogIC50−X)×Hill Slope), where Y=percent activity, B=minimum percent activity, T=maximum percent activity, X=logarithm of compound and Hill Slope=slope factor or Hill coefficient. The IC50 value was determined by the concentration causing a half-maximal percent activity.

[2] = biological target: recombinant TDO2 (Homo sapiens, UniProt P48775); assay: TDO2 enzymatic assay (UV absorption, N-formylkynurenine formation); type: biochemical; conditions: for IC50: 50 nM TDO2, 200 μM tryptophan, 60 min, room temperature, read-out: Enzyme TDO IC50; for Enzyme TDO IC50 ratio compared to Ref. Cmpd 1: IC50 of compound divided by IC50 of Ref. Cmpd 1
recombinant TDO2, sequence (P48775 whole entry, species assumed): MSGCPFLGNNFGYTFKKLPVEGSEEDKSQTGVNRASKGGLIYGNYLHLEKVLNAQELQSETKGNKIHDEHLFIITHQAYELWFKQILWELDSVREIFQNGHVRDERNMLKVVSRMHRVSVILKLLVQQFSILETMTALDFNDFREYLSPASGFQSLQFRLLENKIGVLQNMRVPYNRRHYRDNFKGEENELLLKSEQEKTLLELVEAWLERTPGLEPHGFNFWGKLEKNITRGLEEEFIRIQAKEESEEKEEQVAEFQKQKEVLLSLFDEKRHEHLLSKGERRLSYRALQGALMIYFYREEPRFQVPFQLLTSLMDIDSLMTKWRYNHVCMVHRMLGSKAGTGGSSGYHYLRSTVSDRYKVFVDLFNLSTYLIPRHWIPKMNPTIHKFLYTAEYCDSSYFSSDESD
Method: as §1, §2
TDO2 Assay: All of the reactions were conducted at room temperature. The 100 μl reaction mixture in TDO2 Assay Buffer contains 50 nM TDO2, the indicated amount of the compound, 200 μM tryptophan, and the coupled reaction components. The reaction mixture was incubated for 60 min prior to reading of the UV absorption signal. For the negative control (blank), 5 μl of the assay buffer was added instead of the TDO2.
as §3
as §4, with “The percent inhibition was calculated according to the following equation: % inhibition=100−% activity.” left out

IC50 [1]	Enzyme IDO IC50 ratio compared to Cmpd 2 [1]	IC50 [2]	Enzyme TDO IC50 ratio compared to Ref. Cmpd 1 [2]	Compound
0.328 µM	8.00	0.166 µM	0.78	O[C@@H](C[C@H]1Cn2cncc2-c2ccccc21)C1CCCCC1 (racemic) [Cmpd 305]
1.2 µM	29.27	0.286 µM	1.35	O[C@@H](C[C@@H]1Cn2cncc2-c2ccccc21)C1CCCCC1 (racemic) [Cmpd 306]
0.149 µM	3.47	0.165 µM	0.43	OC(CC1Cc2ccccc2-c2cncn21)C1CCCCC1 (centres unmarked) [Cmpd 278]
7.1 µM	165.12	2.36 µM	6.21	OC(CC1CCc2ccccc2-c2cncn21)C1CCCCC1 (centres unmarked) [Cmpd 279]
> 100 µM	–	> 100 µM	–	OC1CCC(C(O)CC2(C(F)(F)F)c3c(F)cccc3-c3cncn32)CC1 (centres unmarked) [Cmpd 292]
> 100 µM	–	> 100 µM	–	OC1CCC(C(O)CC2(C(F)(F)F)c3c(F)cccc3-c3cncn32)CC1 (centres unmarked) [Cmpd 293]
> 30 µM	–	> 30 µM	–	CC1c2ccccc2-c2cncn2C1C(O)C1CCCCC1 (centres unmarked) [Cmpd 294]
14.5 µM	216.42	8.4 µM	8.40	CC1c2ccccc2-c2cncn2C1C(O)C1CCCCC1 (centres unmarked) [Cmpd 295]
13.1 µM	195.52	2.3 µM	2.30	CC1(CC(O)C2CCCCC2)c2ccccc2-c2cncn21 (centres unmarked) [Cmpd 296]
14 µM	129.63	2.2 µM	6.90	OC(CC1c2ccccc2Cc2cncn21)C1CCCCC1 (centres unmarked) [Cmpd 297]
> 30 µM	–	> 30 µM	–	OC1c2ccccc2C(CC(O)C2CCCCC2)n2cncc21 (centres unmarked) [Cmpd 298]
0.133 µM	1.51	0.096 µM	0.12	FC(CC1Cc2ccccc2-c2cncn21)C1CCCCC1 (centres unmarked) [Cmpd 301]
19.9 µM	226.14	15.5 µM	19.33	OC(CCc1c(F)cccc1-c1c[nH]cn1)C1CCCCC1 (centres unmarked) [Cmpd 302]
> 30 µM	–	9.2 µM	11.47	OC(/C=C/c1c(F)cccc1-c1c[nH]cn1)C1CCCCC1 (centres unmarked) [Cmpd 303]
12.5 µM	142.05	3.1 µM	3.87	OC(C1CCCCC1)C1CC1c1c(F)cccc1-c1c[nH]cn1 (centres unmarked) [Cmpd 304]
0.299 µM	7.29	0.052 µM	0.25	FC(CC1Cn2cncc2-c2ccccc21)C1CCCCC1 (centres unmarked) [Cmpd 307]
23 µM	442.31	14.2 µM	62.28	OC(CC1C(O)c2ccccc2-c2cncn21)C1CCCCC1 (centres unmarked) [Cmpd 308]
5.5 µM	105.77	7.6 µM	33.33	OC(CC1C(O)c2ccccc2-c2cncn21)C1CCCCC1 (centres unmarked) [Cmpd 309]
1.2 µM	32.43	1.9 µM	5.67	OC1CCC(C(F)CC2Cc3ccccc3-c3cncn32)CC1 (centres unmarked) [Cmpd 310]
0.31 µM	8.38	0.111 µM	0.33	FC(CC1Cc2ccccc2-c2cncn21)C1CCCCC1 (centres unmarked) [Cmpd 311]
0.049 µM	1.32	0.078 µM	0.23	FC(CC1Cc2ccccc2-c2cncn21)C1CCCCC1 (centres unmarked) [Cmpd 312]

Compound	IC50 [1]	Enzyme IDO IC50 ratio compared to Cmpd 2 [1]	IC50 [2]	Enzyme TDO IC50 ratio compared to Ref. Cmpd 1 [2]
OC(CC1(C(F)(F)F)c2ccccc2-c2cncn21)C1CCCCC1 (single isomer, unassigned) [Cmpd 290]	> 100 µM	–	–	18.75
OC(CC1(C(F)(F)F)c2ccccc2-c2cncn21)C1CCCCC1 (centres unmarked) [Cmpd 291]	> 100 µM	–	26 µM	16.25
